What all share (format): in vivo
One series deals with warm season turfgrasses. Briefly: Safening of liquid mesotrione formulation on warm season turfgrasses (conclusion from Tables 1 and 2). To be noted: safener applied in combination with a liquid formulation of mesotrione to warm season turfgrasses. The text has this:
(§1) A liquid formulation of mesotrione (Callisto®) was applied to bermudagrass (Cynodon dactylon×C. dactylon) and zoysia grass (Zoysia matrella) by spray application, with and without safeners, at various rates as show in the table below. Assessments were made at 7, 14 and 21 days after application, to determine percentage growth inhibition, an percentage toxicity (chlorosis and/or burning).

Series [1] deals with bermudagrass (Cynodon dactylon×C. dactylon). The experiment in a line: Spray application of liquid mesotrione formulation (Callisto) with and without safeners to bermudagrass; percentage toxicity (chlorosis and/or burning).
Description: as §1

Series [2] deals with zoysia grass (Zoysia matrella). Briefly: Spray application of liquid mesotrione formulation (Callisto) with and without safeners to zoysia grass; percentage toxicity (chlorosis and/or burning).
Description: as §1

Where [3] appears, read: herbicide 140 g ai/ha, safener 70 g ai/ha or none, 7 DAA.
[4] abbreviates: herbicide 140 g ai/ha, safener 70 g ai/ha or none, 14 DAA.
The mark [5] stands for this setting: herbicide 140 g ai/ha, safener 70 g ai/ha or none, 21 DAA.
Where [6] appears, read: herbicide 280 g ai/ha, safener 140 g ai/ha or none, 7 DAA.
[7] abbreviates: herbicide 280 g ai/ha, safener 140 g ai/ha or none, 14 DAA.
[8] abbreviates: herbicide 280 g ai/ha, safener 140 g ai/ha or none, 21 DAA.

Structures are written as SMILES.

For the compound `CNC(=O)Nc1ccc(S(=O)(=O)NC(=O)c2ccccc2OC)cc1` [Formula IV], in the series with warm season turfgrasses, the safening entry is on record as “Particularly good safening”.
With `CS(=O)(=O)c1ccc(C(=O)C2C(=O)CCCC2=O)c([N+](=O)[O-])c1` [Mesotrione, 2-(2′-nitro-4′-methylsulphonylbenzoyl)-1,3-cyclohexanedione], the Percentage toxicity in series [1] (setting [3]) is 30%; in series [1] (setting [4]) it was 10%; in series [1] (setting [5]), 20%; in series [1] (setting [6]) it was 60%; in series [1] (setting [7]), 50%; in series [1] (setting [8]), 50%. For the same compound, the Percentage toxicity was 10% in series [2] (setting [3]); 40% in series [2] (setting [4]); 50% in series [2] (setting [5]); 15% in series [2] (setting [6]); 50% in series [2] (setting [7]); 70% in series [2] (setting [8]).

(Values after US20110269626A1, “HERBICIDAL COMPOSITIONS COMPRISING HPPD-INHIBITORS AND METHODS OF CONTROLLING WEEDS IN TURFGRASSES” (priority 2008, published 2011).)
